# Test results as given in publication PMC12892976, “Alkylation-based optimization of antifungal FPPS inhibitors yields a potent, broad-spectrum lipophilic zoledronate derivative” (mBio, 2025).
# Key:
# [1] = system: Candida albicans; test: checkerboard drug interaction (FICI, MICc); assay type: cell-based;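 note: antifungal plus FPPS inhibitor combinations on Candida albicans tested by a simplified diagonal checkerboard screen, with FICI calculated under the Loewe additivity model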
# Description: (§1) Drug interactions between antifungals and FPPS inhibitors were investigated using a simplified checkerboard diagonal screening method ([45]). […] FICIs were determined according to the Loewe additivity model ([17]).
# [2] = system: Cryptococcus neoformans; test: MIC/MFC broth microdilution (CLSI);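 note: susceptibility testing followed the CLSI M27-Ed4 broth microdilution document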
# Description: (§2) Antifungal susceptibility was determined by broth microdilution according to the CLSI guidelines described in M27-Ed4 ([16]). […] MFC was determined by back-plating drug-treated cultures from MIC broths onto SDA plates. The MFC was defined as the lowest concentration from which no colonies could be cultured.
# [3] = system: Aspergillus flavus; test: MIC/MFC broth microdilution (CLSI); conditions: ATCC204304
# Description: as §2
# [4] = system: Aspergillus fumigatus; test: MIC/MFC broth microdilution (CLSI); conditions: ATCC204305
# Description: as §2
# [5] = system: Candida albicans; test: MIC/MFC broth microdilution (CLSI); assay type: cell-based; conditions: Candida albicans SC5314
# Description: as §2
# [6] = system: Cryptococcus deuterogattii; test: checkerboard drug interaction (FICI, MICc);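 for all read-outs here: simplified diagonal checkerboard screen pairing antifungal drugs with FPPS inhibitors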; assay type: cell-based; conditions: for INH MICc: C. deuterogattii
# Description: as §1
# [7] = system: Aspergillus fumigatus; test: checkerboard drug interaction (FICI, MICc); assay type: cell-based;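 note: simplified diagonal checkerboard screen pairing antifungals with FPPS inhibitors against Aspergillus fumigatus, with FICI calculated under the Loewe additivity model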
# Description: as §1
# [8] = system: Paraphyton cookei; test: checkerboard drug interaction (FICI, MICc);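 note: simplified diagonal checkerboard screen pairing an antifungal with an FPPS inhibitor, FICI computed under the Loewe additivity model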
# Description: as §1
# [9] = system: Saccharomyces cerevisiae; test: checkerboard drug interaction (FICI, MICc); assay type: cell-based; design: INH MICc / INH MICc (ITR:INH) / INH MICc (KET:INH) / INH MICc (FLC:INH): unit not given beside the values;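 note: simplified diagonal checkerboard screen pairing antifungals with FPPS inhibitors, FICI calculated under the Loewe additivity model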
# [10] = system: Cryptococcus deuterogattii; test: MIC/MFC broth microdilution (CLSI);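 note: broth microdilution per CLSI M27-Ed4. MFC is the lowest concentration yielding no colonies when MIC broths are subcultured onto SDA plates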
# Description: as §2
# [11] = system: Saccharomyces cerevisiae; test: MIC/MFC broth microdilution (CLSI); assay type: cell-based; conditions: Saccharomyces cerevisiae S288c
# Description: as §2
smiles,measurement,setting,value
"CCCCCCCCCCn1cc[n+](CC(O)(P(=O)(O)O)P(=O)(O)O)c1 [10-ZOL, Decyl-zoledronate]",bisphosphonate MICc,[1]; with FLC,0.0625
same,bisphosphonate MICc,[1]; with ITR,0.25
same,bisphosphonate MICc,[1]; with KET,0.125
same,bisphosphonate MICc,[1]; with VOR,0.25
same,MFC,[2]; Cryptococcus neoformans,2 µg/mL
same,MIC,[2]; Cryptococcus neoformans,1 µg/mL
same,MIC / MEC,[2]; Cryptococcus neoformans H99,0.5 µg/mL
same,MFC,[3],4 µg/mL
same,MIC,[3],2 µg/mL
same,MIC / MEC,[3],2 µg/mL
same,MFC,[4],2 µg/mL
same,MIC,[4],1 µg/mL
same,MIC / MEC,[4],1 µg/mL
same,MFC,[5],16 µg/mL
same,MIC,[5],4 µg/mL
same,MIC / MEC,[5],4 µg/mL
same,INH MICc,"[6]; FLC:INH combination, MIC of the inhibitor in combination with FLC",0.125
same,INH MICc,"[6]; ITR:INH combination, MIC of the inhibitor in combination with ITR",0.125
same,INH MICc,"[6]; KET:INH combination, MIC of the inhibitor in combination with KET",0.063
same,bisphosphonate MICc,[6]; with 5FC,1
same,bisphosphonate MICc,[6]; with AMB,0.063
same,bisphosphonate MICc,[6]; with CAS,1
same,bisphosphonate MICc,[6]; with FLC,0.125
same,bisphosphonate MICc,[6]; with ITR,0.125
same,bisphosphonate MICc,[6]; with KET,0.063
same,bisphosphonate MICc,[6]; with VOR,0.063
same,FICI,[7]; 5FC:10-ZOL,3
same,FLC MICc,"[7]; A. fumigatus, FLC:INH combination, MIC of FLC in combination with the inhibitor",8
same,INH MICc,"[7]; A. fumigatus, FLC:INH combination, MIC of the inhibitor in combination with FLC",0.5
same,ITR MICc,"[7]; A. fumigatus, ITR:INH combination, MIC of ITR in combination with the inhibitor",0.063
same,INH MICc,"[7]; A. fumigatus, ITR:INH combination, MIC of the inhibitor in combination with ITR",0.063
same,KET MICc,"[7]; A. fumigatus, KET:INH combination, MIC of KET in combination with the inhibitor",0.25
same,INH MICc,"[7]; A. fumigatus, KET:INH combination, MIC of the inhibitor in combination with KET",0.25
same,FICI,[7]; CAS:10-ZOL,1.5
same,bisphosphonate MICc,[7]; with 5FC,1
same,bisphosphonate MICc,[7]; with AMB,0.25
same,bisphosphonate MICc,[7]; with CAS,1
same,bisphosphonate MICc,[7]; with FLC,0.5
same,bisphosphonate MICc,[7]; with ITR,0.063
same,bisphosphonate MICc,[7]; with KET,0.25
same,bisphosphonate MICc,[7]; with VOR,0.25
same,FICI,[8]; 5FC:10-ZOL,≥4
same,FICI,[8]; AMB:10-ZOL,1.5
same,FICI,[8]; CAS:10-ZOL,1.5
same,FICI,[8]; FLC:10-ZOL,0.53
same,FICI,[8]; ITR:10-ZOL,0.53
same,FICI,[8]; VOR:10-ZOL,0.9
same,bisphosphonate MICc,[8]; with 5FC,0.25
same,bisphosphonate MICc,[8]; with AMB,0.25
same,bisphosphonate MICc,[8]; with CAS,0.25
same,bisphosphonate MICc,[8]; with FLC,0.25
same,bisphosphonate MICc,[8]; with ITR,0.25
same,bisphosphonate MICc,[8]; with KET,0.25
same,bisphosphonate MICc,[8]; with VOR,0.125
same,FICI,[9]; 5FC:10-ZOL,2
same,FICI,[9]; ITR:10-ZOL,1
same,FLC MICc,"[9]; S. cerevisiae, FLC:INH combination, MIC of FLC in combination with the inhibitor",1
same,INH MICc,"[9]; S. cerevisiae, FLC:INH combination, MIC of the inhibitor in combination with FLC",0.5
same,FICI,"[9]; S. cerevisiae, ITR:INH combination",1
same,ITR MICc,"[9]; S. cerevisiae, ITR:INH combination, MIC of ITR in combination with the inhibitor",0.125
same,INH MICc,"[9]; S. cerevisiae, ITR:INH combination, MIC of the inhibitor in combination with ITR",0.5
same,KET MICc,"[9]; S. cerevisiae, KET:INH combination, MIC of KET in combination with the inhibitor",0.25
same,INH MICc,"[9]; S. cerevisiae, KET:INH combination, MIC of the inhibitor in combination with KET",0.25
same,bisphosphonate MICc,[9]; with 5FC,1
same,bisphosphonate MICc,[9]; with AMB,0.25
same,bisphosphonate MICc,[9]; with CAS,0.063
same,bisphosphonate MICc,[9]; with FLC,0.5
same,bisphosphonate MICc,[9]; with ITR,0.5
same,FICI,"[9]; with ITR, Saccharomyces cerevisiae",1.00
same,bisphosphonate MICc,[9]; with KET,0.25
same,bisphosphonate MICc,[9]; with VOR,0.25
same,MFC,[10]; Cryptococcus deuterogattii,2 µg/mL
same,MIC,[10]; Cryptococcus deuterogattii,1 µg/mL
same,MIC / MEC,[10]; Cryptococcus deuterogattii R265,1 µg/mL
same,MFC,[11],8 µg/mL
same,MIC,[11],1 µg/mL
same,MIC / MEC,[11],1 µg/mL
